Here are results for 16 compounds from PubChem BioAssay (NCI).

Some test systems named below: LOX IMVI melanoma; OVCAR-5 ovarian; RXF 393 renal; KM12 colon; CCRF-CEM leukemia; SR leukemia; HOP-92 NSCLC; M14 melanoma; MDA-MB-231 breast; MCF7 breast.
Common to all, as to assay: NCI anticancer screen, dose series, 48 h

The structures appear in SMILES notation.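 Dose response: 5 concentrations. Exposure: 48 h. Format: 96-well plates. Endpoint: linear interpolation; highest concentration if not reached. GI50 = concentration required for 50% inhibition of growth. TGI: total growth inhibition.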

For the compound `O=c1[nH]c(-c2ccc(-c3nc4cc([N+](=O)[O-])ccc4c(=O)[nH]3)cc2)nc2cc([N+](=O)[O-])ccc12`, the TGI in the experiment on LOX IMVI melanoma, with OVCAR-5 ovarian, in the experiment with RXF 393 renal, with KM12 colon, with CCRF-CEM leukemia and with SR leukemia was over 100 µM each time. The TGI with HOP-92 NSCLC and with M14 melanoma was over 100 µM in each case.
In the case of `C=CC1C(OC2OC(CO)C(O)C(O)C2O)OC=C(C(=O)OC)C1CC=O` (stereo not drawn), the TGI in the experiment on LOX IMVI melanoma, with RXF 393 renal, in the experiment on KM12 colon, with SR leukemia and with M14 melanoma was over 100 µM throughout.
For `COc1cc(/C=C/C(=O)c2sc(NNC(C)=O)nc2C)ccc1O`, the TGI in the experiment with LOX IMVI melanoma, with OVCAR-5 ovarian, with RXF 393 renal, in the experiment on KM12 colon, in the experiment on CCRF-CEM leukemia and in the experiment on HOP-92 NSCLC was over 100 µM throughout.
For `C=C1CCc2occ(C)c2C2C1C1=C(CC(C)C1=O)C1OC12C` (stereo not drawn), the TGI in the experiment on LOX IMVI melanoma, with OVCAR-5 ovarian, with RXF 393 renal, in the experiment with KM12 colon, in the experiment on CCRF-CEM leukemia and in the experiment on HOP-92 NSCLC was over 100 µM each time. The TGI with M14 melanoma was over 100 µM.
Take `COc1ccc(-c2nn(-c3cccc(Cl)c3)cc2-c2cc(-c3ccccc3)nc(N)n2)cc1`: the GI50 was 2.94 µM with OVCAR-5 ovarian; 2.64 µM in the experiment on RXF 393 renal; 2.05 µM with KM12 colon; 2.13 µM with CCRF-CEM leukemia; 2.03 µM in the experiment on SR leukemia; 1.06 µM in the experiment with HOP-92 NSCLC. Also, the GI50 in the experiment with M14 melanoma is 2.69 µM. In addition, the TGI in the experiment on OVCAR-5 ovarian turned out to be 11 µM; in the experiment with RXF 393 renal it was 8.47 µM; in the experiment on KM12 colon, 4.39 µM; in the experiment on CCRF-CEM leukemia, 6.63 µM; in the experiment with SR leukemia, 5.21 µM; with HOP-92 NSCLC it was 4.77 µM. Besides, the TGI with M14 melanoma is 13.2 µM.
For the compound `C=CCNC(=O)NCCCC(NC(C)=O)C(=O)NCc1ccccc1` (stereo not drawn), the TGI in the experiment on LOX IMVI melanoma, in the experiment with OVCAR-5 ovarian, in the experiment on RXF 393 renal, in the experiment on KM12 colon, in the experiment with CCRF-CEM leukemia and with HOP-92 NSCLC was over 100 µM each time. Moreover, the TGI in the experiment on M14 melanoma was over 100 µM.
Regarding `C1CCOC2(CCC3(CC2)OCCCCO3)OC1`, the TGI in the experiment on RXF 393 renal, with KM12 colon, in the experiment on CCRF-CEM leukemia, in the experiment with SR leukemia and with M14 melanoma was over 100 µM each time.
For `CC(=O)NC1CC2Oc3ccc(C)cc3C(C)(O2)C1O` (stereo not drawn), the TGI with LOX IMVI melanoma, in the experiment on RXF 393 renal, in the experiment on KM12 colon, in the experiment with CCRF-CEM leukemia and in the experiment with M14 melanoma was over 100 µM each time.
For `C=CCC(OCCOCC)c1cc(OCCOCC)ccc1OC` (stereo not drawn), the TGI in the experiment with LOX IMVI melanoma, in the experiment on OVCAR-5 ovarian, in the experiment with RXF 393 renal, in the experiment with KM12 colon, in the experiment with CCRF-CEM leukemia and in the experiment on HOP-92 NSCLC was over 100 µM throughout. The TGI in the experiment with M14 melanoma was over 100 µM.
As for `C/C=C/C=C/CCCCCCCCCCCCCC1(OC)C=CC(CC(=O)OC)OO1` (stereo not drawn), the GI50 with LOX IMVI melanoma is 2.02 µM; with RXF 393 renal, 4.24 µM; in the experiment with KM12 colon, 1.56 µM; in the experiment on CCRF-CEM leukemia, 2.44 µM. The TGI in the experiment on LOX IMVI melanoma is 3.9 µM; in the experiment on RXF 393 renal it was 15.3 µM; in the experiment on KM12 colon, 3.13 µM; in the experiment with CCRF-CEM leukemia it was 5.8 µM; in the experiment on SR leukemia, 7.13 µM; in the experiment with HOP-92 NSCLC it was 4.12 µM. Moreover, the TGI with M14 melanoma is 28.6 µM.
Turning to `Cc1ccc2c(c1)C(=O)c1c-2n(CCCBr)c(=O)c2cc([N+](=O)[O-])ccc12`, the GI50 was 58.8 µM with MDA-MB-231 breast; 17.9 µM in the experiment on LOX IMVI melanoma; over 100 µM in the experiment on OVCAR-5 ovarian; over 100 µM with RXF 393 renal; 4.46 µM with MCF7 breast; over 100 µM with KM12 colon. The GI50 was 5.29 µM in the experiment on CCRF-CEM leukemia, 29.4 µM in the experiment with HOP-92 NSCLC and 45.8 µM in the experiment with M14 melanoma. For the same compound, the TGI in the experiment with MDA-MB-231 breast, in the experiment with LOX IMVI melanoma, with OVCAR-5 ovarian, in the experiment on RXF 393 renal, in the experiment on MCF7 breast and in the experiment on KM12 colon was over 100 µM each time. For the same compound, the TGI in the experiment on CCRF-CEM leukemia is 46.4 µM; in the experiment with HOP-92 NSCLC, over 100 µM; in the experiment with M14 melanoma, over 100 µM.
Consider `C[C@@H](NC1CCC[C@H]1O)c1ccccc1` (stereo partly drawn), for which the TGI in the experiment with LOX IMVI melanoma, in the experiment with OVCAR-5 ovarian, with RXF 393 renal, in the experiment on KM12 colon, in the experiment on CCRF-CEM leukemia and in the experiment with HOP-92 NSCLC was over 100 µM in each case. In the experiment with M14 melanoma, this compound yielded a TGI of over 100 µM.
Consider `O=C1NC2C=CN(Cc3ccccc3)C=C2C(=O)N2CCCC12` (stereo not drawn), for which the TGI with OVCAR-5 ovarian, in the experiment with RXF 393 renal, with KM12 colon, in the experiment with CCRF-CEM leukemia, in the experiment with SR leukemia and in the experiment with HOP-92 NSCLC was over 100 µM in each case. Moreover, the TGI in the experiment with M14 melanoma is over 100 µM.
In the case of `N=C(N)c1ccc(COc2ccccc2OCc2ccc(C(=N)N)cc2)cc1`, the GI50 in the experiment on MDA-MB-231 breast was 32.9 µM; with OVCAR-5 ovarian, over 100 µM; with MCF7 breast it was 46.5 µM; in the experiment on CCRF-CEM leukemia, 33.1 µM; with HOP-92 NSCLC, 11.4 µM; with M14 melanoma it was 51.2 µM. Besides, the TGI in the experiment on MDA-MB-231 breast is over 100 µM; in the experiment with OVCAR-5 ovarian, over 100 µM; with MCF7 breast, over 100 µM; in the experiment on CCRF-CEM leukemia it was over 100 µM; in the experiment with HOP-92 NSCLC, 86.2 µM; in the experiment on M14 melanoma, over 100 µM.
As for `CCN(CC)CC(C(=O)Nc1c(C)cccc1C)/C(C)=N\NC(=O)c1ccncc1` (stereo not drawn), the TGI in the experiment on LOX IMVI melanoma, in the experiment on OVCAR-5 ovarian, in the experiment with RXF 393 renal, in the experiment with KM12 colon, with SR leukemia and in the experiment on HOP-92 NSCLC was over 100 µM each time. The TGI in the experiment with M14 melanoma is over 100 µM.
As for `CCC1CCc2c(OC)ccc(OCC(=O)O)c2C1=O` (stereo not drawn), the TGI in the experiment on LOX IMVI melanoma, with OVCAR-5 ovarian, in the experiment on RXF 393 renal, with KM12 colon, in the experiment on CCRF-CEM leukemia and in the experiment on SR leukemia was over 100 µM in each case. Also, the TGI in the experiment on M14 melanoma was over 100 µM.
